# Biological target: T1, Prothrombin (Homo sapiens, UniProt P00734)
# Assay: Inhibition of human thrombin; call rule not given here
row,Ki [nM],Compound
1,163,"N=C(N)NCCC[C@H]1NC(=O)[C@H]2CCCN2C(=O)[C@H](c2ccccc2)NC(=O)CCCCCCCNC(=O)C1=O (single isomer, unassigned)"
2,15,"N=C(N)NCCC[C@H]1NC(=O)[C@H]2CCCN2C(=O)[C@H](Cc2ccccc2)NC(=O)CCCCCCCCCCNC(=O)C1=O (single isomer, unassigned)"
3,5.3,"N=C(N)NCCC[C@H]1NC(=O)[C@H]2CCCN2C(=O)[C@H](Cc2ccccc2)NC(=O)CCCCCNC(=O)[C@H](CC(c2ccccc2)c2ccccc2)NC(=O)C1=O (single isomer, unassigned)"
4,1800,"N=C(N)NCCC[C@H]1NC(=O)[C@H]2CCCN2C(=O)[C@H](Cc2ccccc2)NC(=O)CCCCCCNC(=O)C1=O (single isomer, unassigned)"
5,4.1,N=C(N)NCCC[C@H]1NC(=O)[C@H]2CCCN2C(=O)[C@H](NC=O)CNC(=O)/C=C\[C@@H](Cc2ccc(O)cc2)NC(=O)[C@H](Cc2ccccc2)NC(=O)C1=O [MACROCYCLIC TRIPEPTIDE MOTIF]
6,86,"N=C(N)NCCC[C@H]1NC(=O)[C@H]2CCCCN2C(=O)[C@H](Cc2ccccc2)NC(=O)CCCCCCCNC(=O)C1=O (single isomer, unassigned)"
7,473,"N=C(N)NCCC[C@H]1NC(=O)[C@H]2CCCN2C(=O)[C@H](Cc2ccccc2)NC(=O)CCCCCNC(=O)C1=O (single isomer, unassigned)"
8,3.1,"N=C(N)NCCC[C@H]1NC(=O)[C@H]2CCCN2C(=O)[C@H](Cc2ccccc2)NC(=O)CCCCCNC(=O)[C@H](CCc2ccccc2)NC(=O)C1=O (single isomer, unassigned)"
9,159,COC1C[C@@H]2C(=O)N[C@H](CCCN=C(N)N)C(=O)C(=O)NCCCCCCCC(=O)N[C@@H](Cc3ccccc3)C(=O)N2C1 (stereo not given in full)

row,Compound,Ki [nM]
1,"N=C(N)NCCC[C@H]1NC(=O)[C@H]2CCCN2C(=O)[C@H](CCc2ccccc2)NC(=O)CCCCCCCNC(=O)C1=O (single isomer, unassigned)",20
2,"N=C(N)NCCC[C@H]1NC(=O)[C@H]2CCCN2C(=O)[C@H](Cc2ccccc2)NC(=O)CCCCCCCCCNC(=O)C1=O (single isomer, unassigned)",9.9
3,"N=C(N)NCCC[C@H]1NC(=O)[C@H]2CCCN2C(=O)[C@H](Cc2ccccc2)NC(=O)CCCCCCCNC(=O)C1=O (single isomer, unassigned)",24

# Biological target: T2, Serine protease 1 (Bos taurus, UniProt P00760)
# T2 sequence (P00760 whole entry): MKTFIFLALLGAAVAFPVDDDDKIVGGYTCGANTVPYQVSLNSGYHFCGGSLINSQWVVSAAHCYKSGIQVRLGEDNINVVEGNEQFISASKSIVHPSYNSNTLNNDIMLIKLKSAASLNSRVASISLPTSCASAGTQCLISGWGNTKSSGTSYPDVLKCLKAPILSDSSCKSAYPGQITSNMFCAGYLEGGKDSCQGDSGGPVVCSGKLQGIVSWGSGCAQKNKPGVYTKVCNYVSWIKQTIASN
# Assay: Inhibition of bovine trypsin
row,Ki [nM],Compound
1,5.2,"N=C(N)NCCC[C@@H]1NC(=O)[C@@H]2CCCN2C(=O)[C@@H](Cc2ccccc2)NC(=O)CCCCCNC(=O)[C@@H](CCc2ccccc2)NC(=O)C1=O (single isomer, unassigned)"
2,710,"N=C(N)NCCC[C@@H]1NC(=O)[C@@H]2CCCN2C(=O)[C@@H](Cc2ccccc2)NC(=O)CCCCCNC(=O)C1=O (single isomer, unassigned)"
3,2.1,"N=C(N)NCCC[C@@H]1NC(=O)[C@@H]2CCCN2C(=O)[C@@H](Cc2ccccc2)NC(=O)CCCCCCCCCNC(=O)C1=O (single isomer, unassigned)"
4,280,"N=C(N)NCCC[C@@H]1NC(=O)[C@@H]2CCCN2C(=O)[C@@H](Cc2ccccc2)NC(=O)CCCCCCNC(=O)C1=O (single isomer, unassigned)"
5,11,"N=C(N)NCCC[C@@H]1NC(=O)[C@@H]2CCCN2C(=O)[C@@H](c2ccccc2)NC(=O)CCCCCCCNC(=O)C1=O (single isomer, unassigned)"
6,1,N=C(N)NCCC[C@@H]1NC(=O)[C@@H]2CCCN2C(=O)[C@@H](NC=O)CNC(=O)/C=C\[C@@H](Cc2ccc(O)cc2)NC(=O)[C@@H](Cc2ccccc2)NC(=O)C1=O [MACROCYCLIC TRIPEPTIDE MOTIF]
7,14,"N=C(N)NCCC[C@@H]1NC(=O)[C@@H]2CCCN2C(=O)[C@@H](CCc2ccccc2)NC(=O)CCCCCCCNC(=O)C1=O (single isomer, unassigned)"
8,10,"N=C(N)NCCC[C@@H]1NC(=O)[C@@H]2CCCN2C(=O)[C@@H](Cc2ccccc2)NC(=O)CCCCCCCNC(=O)C1=O (single isomer, unassigned)"
9,2.5,"N=C(N)NCCC[C@@H]1NC(=O)[C@@H]2CCCN2C(=O)[C@@H](Cc2ccccc2)NC(=O)CCCCCNC(=O)[C@@H](CC(c2ccccc2)c2ccccc2)NC(=O)C1=O (single isomer, unassigned)"
10,25,"N=C(N)NCCC[C@@H]1NC(=O)[C@@H]2CCCN2C(=O)[C@@H](Cc2ccccc2)NC(=O)CCCCCCCCCCNC(=O)C1=O (single isomer, unassigned)"
11,66,"N=C(N)NCCC[C@@H]1NC(=O)[C@@H]2CCCCN2C(=O)[C@@H](Cc2ccccc2)NC(=O)CCCCCCCNC(=O)C1=O (single isomer, unassigned)"
12,13,COC1C[C@@H]2C(=O)N[C@H](CCCN=C(N)N)C(=O)C(=O)NCCCCCCCC(=O)N[C@@H](Cc3ccccc3)C(=O)N2C1 (stereo not given in full)

# Biological target: T1, Prothrombin
# Assay: Compound was evaluated for inhibition of human thrombin at a concentration of 50 uM; Not active
row,Ki,Compound
1,Not Active,N=C(N)NCCC[C@H]1NC(=O)[C@H]2CCCN2C(=O)[C@H](CCc2ccccc2)NC(=O)CCCCCCCNC(=O)C1O (stereo not given in full)
